Source: article PMC1660542, “Structure-based discovery of inhibitors of the YycG histidine kinase: New chemical leads to combat Staphylococcus epidermidis infections” (BMC Microbiology, 2006)
≈ marks a conversion by molar mass, not a printed value. Where two headings read alike, the source gives them in different places.

Legend:
S. epidermidis RP62A [1] = test: Minimal bactericidal concentration (MBC) assay; type: cell-based; details: Staphylococcus epidermidis; S. epidermidis RP62A; read-out: Minimal bactericidal concentration (MBC)
Procedure: (§1) MIC assays for the antibacterial activities of the compounds were performed according to the broth micro-dilution (in tubes) method of the Clinical and Laboratory Standards Institute (CLSI) of America. The Minimal Bactericidal Concentration (MBC) was obtained by subculturing 100 μl from each negative (no visible bacterial growth) tube from the MIC assay, onto substance-free Mueller-Hinton agar plates. The plates were incubated at 37°C for 24 hours, and the MBC was defined as the lowest concentration of substance which produced subcultures growing no more than five colonies on each plate.

S. epidermidis ATCC12228 [2] = test: Minimal bactericidal concentration (MBC) assay; type: cell-based; details: Staphylococcus epidermidis
Procedure: as §1

YycG' protein = molecular target: T1, YycG' protein (Staphylococcus epidermidis, UniProt Q8CU87); test: Inhibition of YycG' ATPase activity / autophosphorylation (Kinase-Glo Luminescent Kinase Assay); type: biochemical; details: 3 μM ATP
T1 construct: of YycG (370aa to 610aa) was amplified by PCR; His-tag (pET28a) (N); made in house; host or cells: E. coli BL21 (pET28a, pETYycG')
Procedure: The inhibitory activities of the compounds for the ATPase activity of the YycG' protein was measured using the Kinase-Glo™ Luminescent Kinase Assay (Promega, Madison, USA). Briefly, 4 μg YycG' protein was pre-incubated with a series of dilution of compounds in the reaction buffer (40 mM Tris [pH 7.5], 20 mM MgCl2, and 0.1 mg/ml BSA), at 25°C for 30 min. Then 3 μM ATP was added for another incubation of 30 min at 25°C, and Kinase-Glo™ Reagent was added to detect the rest amount of ATP, as recorded from luminescence measurements (RLU). In parallel, theYycG' protein with no addition of compounds was used as the control. The rate of inhibiting protein phosphorylation (Rp) by the compounds was calculated from equation 1:
Rp=RLU(YycG^′+compound+ATP+Reagent)−RLU(YycG^′+ATP+Reagent)/RLU(ATP+Reagent)−RLU(YycG^′+ATP+Reagent)×100% (1) MathType@MTEF@5@5@+=feaafiart1ev1aaatCvAUfKttLearuWrP9MDH5MBPbIqV92AaeXatLxBI9gBaebbnrfifHhDYfgasaacH8akY=wiFfYdH8Gipec8Eeeu0xXdbba9frFj0=OqFfea0dXdd9vqai=hGuQ8kuc9pgc9s8qqaq=dirpe0xb9q8qiLsFr0=vr0=vr0dc8meaabaqaciaacaGaaeqabaqabeGadaaakeaacqqGsbGudaWgaaWcbaGaeeiCaahabeaakiabg2da9maalaaabaGaeeOuaiLaeeitaWKaeeyvauLaeiikaGIaeeywaKLaeeyEaKNaee4yamMafe4raCKbauaacqGHRaWkcqqGJbWycqqGVbWBcqqGTbqBcqqGWbaCcqqGVbWBcqqG1bqDcqqGUbGBcqqGKbazcqGHRaWkcqqGbbqqcqqGubavcqqGqbaucqGHRaWkcqqGsbGucqqGLbqzcqqGHbqycqqGNbWzcqqGLbqzcqqGUbGBcqqG0baDcqGGPaqkcqGHsislcqqGsbGucqqGmbatcqqGvbqvcqGGOaakcqqGzbqwcqqG5bqEcqqGJbWycuqGhbWrgaqbaiabgUcaRiabbgeabjabbsfaujabbcfaqjabgUcaRiabbkfasjabbwgaLjabbggaHjabbEgaNjabbwgaLjabb6gaUjabbsha0jabcMcaPaqaaiabbkfasjabbYeamjabbwfavjabcIcaOiabbgeabjabbsfaujabbcfaqjabgUcaRiabbkfasjabbwgaLjabbggaHjabbEgaNjabbwgaLjabb6gaUjabbsha0jabcMcaPiabgkHiTiabbkfasjabbYeamjabbwfavjabcIcaOiabbMfazjabbMha5jabbogaJjqbbEeahzaafaGaey4kaSIaeeyqaeKaeeivaqLaeeiuaaLaey4kaSIaeeOuaiLaeeyzauMaeeyyaeMaee4zaCMaeeyzauMaeeOBa4MaeeiDaqNaeiykaKcaaiabgEna0kabigdaXiabicdaWiabicdaWiabcwcaLiaaxMaacaWLjaWaaeWaaeaacqaIXaqmaiaawIcacaGLPaaaaaa@A46C@
IC50 (the concentration of inhibition of 50% YycG' protein autophosphorylation) was obtained by using the Origin v7.0 software (OriginLab, Northampton, USA).

[3] = Cytotoxicity on Vero cell (MTT, Cell Proliferation Kit I); type: cell-based, African Green-monkey; details: African green monkey, Vero cells, highest concentration tested 200 μM
Procedure: (§2) Cytotoxicity of the antibacterial compounds on cultured Vero cell was measured by using the Cell Proliferation Kit I (MTT) (Roche, Indianapolis, USA) according to the manufacturer's protocol. Addition of DMSO (1%) in the medium produced a slight cytotoxicity on Vero cell, which could easily be corrected for. Each assay was performed in quadruplicate and repeated three times. The results were converted to percentage of the control (cells only treated with 1% DMSO) and CC50 (concentrations that produce a 50% cytotoxicity effect on Vero cell) was calculated by the Origin v7.0 software (OriginLab, Northampton, USA). Hemolytic activities of the compounds were determined by using healthy human erythrocytes. The erythrocytes were washed three times in sterile saline and resuspended to 5% prior to the assay. […] Cells without compound treatment and cells with 1% Triton-100 treatment were used as 0% and 100% hemolysis controls, respectively. The cell suspensions were incubated for 1 hour at 37°C and centrifuged at 1000×g for 10 min. Volumes of 100 μl supernatants were transferred to another sterile plate and hemoglobin release from the cells was determined at 570 nm. […] The hemolysis assays were repeated twice.

S. epidermidis RP62A [4] = test: MIC assay (broth dilution in tubes, CLSI); type: cell-based; details: Staphylococcus epidermidis; S. epidermidis RP62A (biofilm-forming strain); read-out: Minimal inhibitory concentration (MIC)
Source text: (§3) Staphylococcus epidermidis ATCC12228 and RP62A strains were purchased from the American Type Culture Collection (ATCC, Manassas, USA). Staphylococcus aureus ATCC29213, Escherichia coli ATCC25922 and Pseudomonas aeruginosa ATCC27853 were kindly provided by Dr. Bijie Hu at Zhongshan Hospital (Shanghai, China). S. epidermidis strains se527, se886, se847, seG203, Streptococcus pyogenes strain 144, and Streptococcus mutans strain 128 were all clinical isolates from Zhongshan Hospital and Huashan Hospital (Shanghai, China). If not stated otherwise, S. epidermidis and S. aureus strains were grown at 37°C in tryptic soy broth (TSB, Oxoid) containing 0.25% glucose, E. coli and P. aeruginosa strains were grown at 37°C in Luria-Bertani (LB, Oxoid).
as §1

S. epidermidis ATCC12228 [5] = test: MIC assay (broth dilution in tubes, CLSI); type: cell-based, Staphylococcus epidermidis; details: for MIC: Staphylococcus epidermidis
S. pyogenes 144 = test: MIC assay (broth dilution in tubes, CLSI); type: cell-based, Streptococcus pyogenes; details: Streptococcus pyogenes; S. pyogenes 144; read-out: Minimal inhibitory concentration (MIC)
Source text: as §3, §1

S. mutans 128 = test: MIC assay (broth dilution in tubes, CLSI); type: cell-based, Streptococcus mutans; details: Streptococcus mutans; S. mutans 128; read-out: Minimal inhibitory concentration (MIC)
Source text: as §3, §1

SrrB' = test: Inhibition of SrrB' autophosphorylation (Kinase-Glo); type: biochemical, S. epidermidis; details: compound 50 μM, 4 μg protein, 3 μM ATP
[6] = Erythrocyte hemolysis assay; type: cell-based, human; details: human, erythrocytes (5% suspension), 1 hour, 37°C;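 note: compounds tested at their MIC and at 4× MIC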
Procedure: as §2

S. aureus ATCC29213 = test: MIC assay (broth dilution in tubes, CLSI); type: cell-based, Staphylococcus aureus; details: Staphylococcus aureus; S. aureus ATCC29213; read-out: Minimal inhibitory concentration (MIC)
Source text: as §3, §1

T1 sequence (Q8CU87 370-610): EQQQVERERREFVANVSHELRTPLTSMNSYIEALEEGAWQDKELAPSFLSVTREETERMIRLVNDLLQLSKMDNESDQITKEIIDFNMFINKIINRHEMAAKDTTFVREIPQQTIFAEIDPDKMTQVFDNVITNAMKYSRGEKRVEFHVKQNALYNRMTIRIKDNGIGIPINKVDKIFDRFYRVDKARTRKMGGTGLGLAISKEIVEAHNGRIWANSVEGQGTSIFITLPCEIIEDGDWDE

## Cc1ccc(NC(=O)CN2C(=O)S/C(=C\c3ccc(OCc4cccc(C(O)O)c4)cc3)C2=O)cc1 [Compound 7]
S. epidermidis RP62A [1]
  MBC: > 400 µM
S. epidermidis ATCC12228 [2]
  MBC: > 400 µM
YycG' protein; 4 μg YycG' protein, read-out: IC50 for YycG'
  IC50: 6.5 µM
YycG' protein; compound 50 μM, 4 μg protein, read-out: Inhibition of YycG' phosphorylation (decrease of ATPase activity)
  inhibition at 50 µM: 86%
[3]
  CC50: > 200 µM
S. epidermidis RP62A [4]
  MIC: > 200 µM
S. epidermidis ATCC12228 [5]; ATCC12228 versus RP62A
  Antibacterial effectiveness: only effective against the non-biofilm-forming strain ATCC12228
S. epidermidis ATCC12228 [5]; ATCC12228, Table 2, as tested on S. epidermidis ATCC 12228, read-out: MICs
  MIC: 0.2 µM (≈ 0.101 µg/mL)
S. epidermidis ATCC12228 [5]; S. epidermidis ATCC12228 (non-biofilm-forming strain), read-out: Minimal inhibitory concentration (MIC)
  MIC: 0.2 µM (≈ 0.101 µg/mL)
S. pyogenes 144
  MIC: > 200 µM
S. mutans 128
  MIC: > 200 µM
SrrB'
  Inhibition of SrrB' phosphorylation: 2%
[6]; at 4 × MIC (number in parenthesis)
  hemolysis at 1 h: < 0.1%
[6]; at MIC for S. epidermidis ATCC12228
  hemolysis at 1 h: < 0.1%
S. aureus ATCC29213
  MIC: > 200 µM
